Values of other authors, collected in patent US20150174160A1, “METHODS FOR TREATING, DIAGNOSING AND/OR MONITORING PROGRESSION OF OXO ASSOCIATED STATES” (priority 2012, published 2015).

Details: for 2 years in humans

- safe dose: up to 2 grams daily
SMILES: O=C(O)CCCCC1CCSS1 (stereo not drawn) [ALA, alpha-lipoic acid]
